One experiment has as its system KCNQ channels. Briefly: Thallium flux assay for KCNQ channel openers. Format: cell-based. The conditions noted are these: HEK-293 cells stably transfected with a KCNQ family member. Summed up:
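HEK-293 lines stably expressing individual KCNQ members, loaded with BTC-AM in chloride-free buffer pH 7.3, compound added (1% DMSO final) before 7.5 mM Tl2SO4 stimulus; fluorescence read 60 s on FLIPR. Minimal active concentration at ≥4 SD above negative controls; EC50 from 10-point logistic fit.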

Another experiment has as its target T1, mKCNQ2 channels (Mus musculus, UniProt Q9Z351).
T1 construct: expressed in transfected cells
Briefly: KCNQ patch-clamp (whole-cell recordings, HEK 293 stable cell line). Format: cell-based. The conditions noted are these: current of KCNQ2 channels, HEK 293 cells expressing mKCNQ2. How it is done:
KCNQ Patch-clamp. Whole-cell patch-clamp recordings were made from an HEK 293 stable cell line expressing mKCNQ2 channels, maintained in culture for 1-2 days. Patch pipettes had initial resistances of 2.5-4 MΩ. Currents were recorded with an EPC-9 amplifier (HEKA, Lambrecht, Germany) controlled with software (Pulse, HEKA) run on a standard lab PC. Series resistance compensation was used during current recording, and set at 80%. The series resistance (R) and cell capacitance (C) were determined electronically by subtracting the capacitive currents at the onset and offset of a 5 mV voltage step. The cancellation of whole-cell capacitive transients was virtually complete in all cells. Analog current signals were low-pass filtered at 2.9 kHz using a four-pole Bessel filter −3 dB) and stored on a local network server computer at a sampling rate of […]. All recordings were performed at room temperature (20-22° C.). The pipette solution contained (mM) KCl, 150; CaCl2, 2.5; EGTA, 5; MgCl2, 1; HEPES, 10; pH to 7.3 with KOH, and Osmolality of 290-300 mOsm. The extracellular solution contained (mM): NaCl, 140; KCl, 2.5; CaCl2, 2.5; MgCl2, 1; glucose, 10; HEPES, 10; pH to 7.3 with NaOH, and Osmolality of 305-310 mOsm. […]
A general note: Patch clamp records ionic current or voltage across a cell membrane.

The structures appear in SMILES notation.

The EC50 is the midpoint of the concentration-response curve. Low values mean greater potency, high ones weaker potency. With `CC(NC(=O)c1sc(-c2ccccc2F)nc1C(F)(F)F)c1cccc(OC(F)(F)F)c1` (stereo not drawn) [Example 21, 2-(2-fluorophenyl)-4-(trifluoromethyl)-N-[1-[3-(trifluoromethoxy)phenyl]ethyl]-5-thiazolecarboxamide], the Min. conc. response in the experiment on KCNQ channels (minimal active concentration: lowest concentration giving signal amplitude >= four standard deviations of negative controls) amounted to 0.3 µM. Further, the EC50 in the experiment with KCNQ channels (thallium flux, 10 point concentration series) is under 50 nM; at mKCNQ2 channels it was 3 nM.

The values above are taken from patent US7273866B2, “2-aryl thiazole derivatives as KCNQ modulators” (Bristol-Myers Squibb Company, priority 2002, dated 2007).
